Data from US9302999B2, “Substituted triazoles as herbicides” (E. I. DU PONT DE NEMOURS AND COMPANY, priority 2012, dated 2016).
Where two headings read alike, the source gives them in different places.

Key:
Type in all cases: in vivo
[1] = tested on: nutsedge, yellow (yellow nutsedge, Cyperus esculentus); test: Test C pre-/postemergence: nutsedge, yellow
How it was run: (§1)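 Visual injury scored 0–100 (100 = complete control) against untreated controls after 13–15 greenhouse days. Surfactant-containing solvent formulations applied either to soil after sowing (loam/sand) or over 1- to 4-leaf plants, 2–18 cm tall.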

[2] = tested on: lambsquarters (Chenopodium album); test: Test C pre-/postemergence: lambsquarters
How it was run: as §1

[3] = tested on: chickweed (common chickweed, Stellaria media); test: Test C postemergence: chickweed; conditions: 31 g ai/ha, scale 0 to 100 (0 no effect, 100 complete control)
How it was run: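 Seedlings are raised in pots of peat-based medium to 2–18 cm (1- to 4-leaf stage). The formulated compound is then applied postemergence. Plants stay in the greenhouse for 13 to 15 days and are rated visually against controls, where 0 means no effect and 100 complete control.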

[4] = tested on: ryegrass, Italian (Italian ryegrass, Lolium multiflorum); test: Test C pre-/postemergence: ryegrass, Italian
How it was run: as §1

[5] = tested on: velvetleaf (Abutilon theophrasti); test: Test A pre-/postemergence: velvetleaf; conditions: Abutilon theophrasti, 240 h; for pest or weed control at 125 g/ha: 125 g ai/ha; for pest or weed control at 500 g/ha: 500 g ai/ha
How it was run: (§2)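 Pre: directed soil spray after planting in loam + sand. Post: same formulation (non-phytotoxic solvent + surfactant) on 1–2-leaf plants, 2–10 cm. Greenhouse ~10 d; visual injury 0–100 vs untreated.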

[6] = tested on: blackgrass (Alopecurus myosuroides); test: Test C pre-/postemergence: blackgrass
How it was run: as §1

[7] = tested on: wheat (Triticum aestivum); test: Test A pre-/postemergence: wheat; conditions: Triticum aestivum, 240 h; for plant injury at 125 g/ha: 125 g ai/ha; for plant injury at 500 g/ha: 500 g ai/ha
How it was run: as §2

[8] = tested on: morningglory (Ipomoea spp.); test: Test A pre-/postemergence: morningglory; conditions: Ipomoea, 240 h; for pest or weed control at 125 g/ha: 125 g ai/ha; for pest or weed control at 500 g/ha: 500 g ai/ha
How it was run: as §2

[9] = tested on: morningglory (Ipomoea coccinea); test: Test C pre-/postemergence: morningglory
How it was run: as §1

[10] = tested on: pigweed (Amaranthus retroflexus); test: Test A pre-/postemergence: pigweed; conditions: Amaranthus retroflexus, 240 h; for pest or weed control at 125 g/ha: 125 g ai/ha; for pest or weed control at 500 g/ha: 500 g ai/ha
How it was run: as §2

corn (Zea mays) = test: Test C pre-/postemergence: corn
How it was run: as §1

[11] = tested on: barnyardgrass (Echinochloa crus-galli); test: Test A pre-/postemergence: barnyardgrass; conditions: Echinochloa crus-galli, 240 h; for pest or weed control at 125 g/ha: 125 g ai/ha; for pest or weed control at 500 g/ha: 500 g ai/ha
How it was run: as §2

[12] = Postemergence, 31 g ai/ha, scale 0 to 100 (0 no effect, 100 complete control)
[13] = Postemergence, 62 g ai/ha, scale 0 to 100 (0 no effect, 100 complete control)
[14] = Postemergence, 125 g ai/ha, scale 0 to 100, 0 no effect, 100 complete control
[15] = Postemergence, 250 g ai/ha, scale 0 to 100
[16] = Preemergence, 31 g ai/ha, scale of 0 to 100, 0 is no effect, 100 is complete control
[17] = Preemergence, 62 g ai/ha, scale of 0 to 100, 0 is no effect, 100 is complete control
[18] = Preemergence, 125 g ai/ha, scale 0 to 100, 0 no effect, 100 complete control
[19] = Preemergence, 250 g ai/ha, scale 0 to 100, 0 no effect, 100 complete control
[20] = Preemergence, 62 g ai/ha, scale 0 to 100, 0 no effect, 100 complete control

Structure (SMILES): Cc1nn(-c2ccc(C(F)(F)F)cc2)nc1Cc1ccnc(C(F)(F)F)c1 [Compound 47, 4-[[5-methyl-2-[4-(trifluoromethyl)phenyl]-2H-1,2,3-triazol-4-yl]methyl]-2-(trifluoromethyl)pyridine]
- Plant response rating, Nutsedge, Yellow [1, 12]: 0
- Plant response rating, Nutsedge, Yellow [1, 13]: 0
- Plant response rating, Nutsedge, Yellow [1, 14]: 0
- Plant response rating, Nutsedge, Yellow [1, 15]: 0
- Plant response rating, Nutsedge, Yellow [1, 16]: 0
- Plant response rating, Nutsedge, Yellow [1, 17]: 0
- Plant response rating, Nutsedge, Yellow [1, 18]: 0
- Plant response rating, Nutsedge, Yellow [1, 19]: 0
- Plant response rating, Lambsquarters [2, 12]: 100
- Plant response rating, Lambsquarters [2, 16]: 100
- Plant response rating, Lambsquarters [2, 17]: 100
- Plant response rating, Lambsquarters [2, 18]: 100
- Plant response rating, Lambsquarters [2, 19]: 100
- Plant response rating, Chickweed [3]: 80
- Plant response rating, Ryegrass, Italian [4, 12]: 35
- Plant response rating, Ryegrass, Italian [4, 13]: 65
- Plant response rating, Ryegrass, Italian [4, 14]: 75
- Plant response rating, Ryegrass, Italian [4, 15]: 85
- Plant response rating, Ryegrass, Italian [4, 16]: 35
- Plant response rating, Ryegrass, Italian [4, 17]: 50
- Plant response rating, Ryegrass, Italian [4, 18]: 90
- Plant response rating, Ryegrass, Italian [4, 19]: 98
- pest or weed control at 125 g/ha ([5]; post-emergence, Postemergence, 0 to 100 scale, 0 is no effect, 100 is complete control, read-out: Velvetleaf plant response rating): 100%
- pest or weed control at 500 g/ha ([5]; post-emergence, Postemergence, visual rating on 0 to 100 scale (0 no effect, 100 complete control), approximately ten days, read-out: Velvetleaf plant response rating): 100%
- pest or weed control at 125 g/ha ([5]; pre-emergence, Preemergence, 0 to 100 scale (0 no effect, 100 complete control), read-out: Plant response rating, Velvetleaf): 80%
- pest or weed control at 500 g/ha ([5]; pre-emergence, Preemergence, 0 to 100 scale, 0 is no effect, 100 is complete control, read-out: Plant response rating, Velvetleaf): 100%
- Plant response rating, Blackgrass [6, 12]: 40
- Plant response rating, Blackgrass [6, 13]: 45
- Plant response rating, Blackgrass [6, 14]: 60
- Plant response rating, Blackgrass [6, 15]: 90
- Plant response rating, Blackgrass [6, 16]: 90
- Plant response rating, Blackgrass [6, 20]: 98
- Plant response rating, Blackgrass [6, 18]: 100
- Plant response rating, Blackgrass [6, 19]: 100
- plant injury at 125 g/ha ([7]; post-emergence, Postemergence, 0 to 100 scale, 0 is no effect, 100 is complete control, read-out: Wheat plant response rating): 30%
- plant injury at 500 g/ha ([7]; post-emergence, Postemergence, visual rating on 0 to 100 scale (0 no effect, 100 complete control), approximately ten days, read-out: Wheat plant response rating): 50%
- plant injury at 125 g/ha ([7]; pre-emergence, Preemergence, 0 to 100 scale (0 no effect, 100 complete control), read-out: Plant response rating, Wheat): 30%
- plant injury at 500 g/ha ([7]; pre-emergence, Preemergence, 0 to 100 scale, 0 is no effect, 100 is complete control, read-out: Plant response rating, Wheat): 40%
- pest or weed control at 125 g/ha ([8]; post-emergence, Postemergence, 0 to 100 scale, 0 is no effect, 100 is complete control, read-out: Morningglory plant response rating): 90%
- pest or weed control at 500 g/ha ([8]; post-emergence, Postemergence, visual rating on 0 to 100 scale (0 no effect, 100 complete control), approximately ten days, read-out: Morningglory plant response rating): 90%
- pest or weed control at 125 g/ha ([8]; pre-emergence, Preemergence, 0 to 100 scale (0 no effect, 100 complete control), read-out: Plant response rating, Morningglory): 70%
- pest or weed control at 500 g/ha ([8]; pre-emergence, Preemergence, 0 to 100 scale, 0 is no effect, 100 is complete control, read-out: Plant response rating, Morningglory): 80%
- Plant response rating, Morningglory [9, 12]: 75
- Plant response rating, Morningglory [9, 13]: 95
- Plant response rating, Morningglory [9, 14]: 100
- Plant response rating, Morningglory [9, 15]: 100
- Plant response rating, Morningglory [9, 16]: 5
- Plant response rating, Morningglory [9, 17]: 20
- Plant response rating, Morningglory [9, 18]: 50
- Plant response rating, Morningglory [9, 19]: 65
- pest or weed control at 125 g/ha ([10]; post-emergence, Postemergence, 0 to 100 scale, 0 is no effect, 100 is complete control, read-out: Pigweed plant response rating): 100%
- pest or weed control at 500 g/ha ([10]; post-emergence, Postemergence, visual rating on 0 to 100 scale (0 no effect, 100 complete control), approximately ten days, read-out: Pigweed plant response rating): 100%
- pest or weed control at 125 g/ha ([10]; pre-emergence, Preemergence, 0 to 100 scale (0 no effect, 100 complete control), read-out: Plant response rating, Pigweed): 100%
- pest or weed control at 500 g/ha ([10]; pre-emergence, Preemergence, 0 to 100 scale, 0 is no effect, 100 is complete control, read-out: Plant response rating, Pigweed): 100%
- Plant response rating, Corn (corn (Zea mays); [12]): 5
- Plant response rating, Corn (corn (Zea mays); [13]): 15
- Plant response rating, Corn (corn (Zea mays); [14]): 15
- Plant response rating, Corn (corn (Zea mays); [15]): 25
- Plant response rating, Corn (corn (Zea mays); [16]): 0
- Plant response rating, Corn (corn (Zea mays); [20]): 5
- Plant response rating, Corn (corn (Zea mays); [18]): 10
- Plant response rating, Corn (corn (Zea mays); [19]): 40
- pest or weed control at 125 g/ha ([11]; post-emergence, Postemergence, 0 to 100 scale, 0 is no effect, 100 is complete control, read-out: Barnyardgrass plant response rating): 90%
- pest or weed control at 500 g/ha ([11]; post-emergence, Postemergence, visual rating on 0 to 100 scale (0 no effect, 100 complete control), approximately ten days, read-out: Barnyardgrass plant response rating): 90%
- pest or weed control at 125 g/ha ([11]; pre-emergence, Preemergence, 0 to 100 scale (0 no effect, 100 complete control), read-out: Plant response rating, Barnyardgrass): 90%
- pest or weed control at 500 g/ha ([11]; pre-emergence, Preemergence, 0 to 100 scale, 0 is no effect, 100 is complete control, read-out: Plant response rating, Barnyardgrass): 100%
